Test results published in PubChem BioAssay (NCI).
Values joined by “and” are separate entries in the source; they are usually repeats but may differ in a detail not shown here. Identical values can stand only once.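 Protocol summary: plate cells (96-well), add compound at 5 concentrations, incubate 48 h, interpolate endpoints linearly. Abbreviation: GI50, concentration required for 50% inhibition of growth. Definition used: TGI = concentration required for complete inhibition of growth.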 Where a SMILES comes first, the peptide text is derived from it. The star is where a group is joined. Boc = CC(C)(C)OC(=O)*; OBn = c1ccc(CO*)cc1; Bn = c1ccc(C*)cc1

Tests used:
Test in all cases: NCI-60 cell line screen, 48 h
[1] = tested on: A549 NSCLC
[2] = tested on: EKVX NSCLC
[3] = tested on: NCI-H226 lung
[4] = tested on: OVCAR-5 ovarian
[5] = tested on: OVCAR-8 ovarian
[6] = tested on: PC-3 prostate
[7] = tested on: RPMI-8226 leukemia
[8] = tested on: RXF 393 renal
[9] = tested on: UACC-257 melanoma
[10] = tested on: DU-145 prostate
[11] = tested on: UACC-62 melanoma
[12] = tested on: HT29 colon

SMILES	TGI [1]	TGI [2]	TGI [3]	TGI [4]	TGI [5]	TGI [6]	TGI [7]	TGI [8]	TGI [9]	TGI [10]	TGI [11]	TGI [12]	GI50 [1]	GI50 [10]	GI50 [12]	GI50 [4]	GI50 [7]	GI50 [9]	GI50 [11]
Cc1cc2nc3c(C#N)c(-c4ccccc4)/c(=C\Nc4cccc(C(F)(F)F)c4)c(=O)n3c2cc1C	> 100 µM	> 100 µM	> 100 µM	> 100 µM	> 100 µM	> 100 µM	> 100 µM	> 100 µM	> 100 µM	–	–	–	–	–	–	–	–	–	–
N=C(/C=C/c1ccc(-c2cn3cc(/C=C/C(=N)N4CCOCC4)ccc3n2)cc1)N1CCOCC1	> 100 µM	> 100 µM	> 100 µM	> 100 µM	> 100 µM	> 100 µM	> 100 µM	> 100 µM	> 100 µM	> 100 µM	> 100 µM	–	–	–	–	–	–	–	–
CC1(C)COC(c2cccc(C3=NC(C)(C)CO3)c2)=N1	> 100 µM	> 100 µM	> 100 µM	> 100 µM	> 100 µM	> 100 µM	> 100 µM	–	> 100 µM	> 100 µM	> 100 µM	> 100 µM	–	–	–	–	–	–	–
CC(C)CC(NC(=O)C(Cc1ccccc1)NC(=O)C(COCc1ccccc1)NC(=O)OC(C)(C)C)C(=O)OCc1ccccc1 (stereo not drawn) (Boc-Ser(Bn)-Phe-Leu-OBn; configuration not given here)	–	61.5 µM	–	> 100 µM	34.6 µM	57.6 µM	33.2 µM	–	> 100 µM	25.2 µM	33 µM	43.9 µM	–	–	–	–	–	–	–
CCCCc1ccc(N2C(=O)c3cc(C)cnc3S2(=O)=O)cc1	> 100 µM	> 100 µM	> 100 µM	> 100 µM	> 100 µM	> 100 µM	> 100 µM	> 100 µM	–	> 100 µM	–	> 100 µM	–	–	–	–	–	–	–
CC(=O)OCc1ccc(-c2nc(C#N)c(N)o2)o1	> 10 µM	> 10 µM	> 10 µM	–	> 10 µM	> 10 µM	> 10 µM	> 10 µM	> 10 µM	> 10 µM	> 10 µM	> 10 µM	–	–	–	–	–	–	–
Cn1c2ccccc2n2c(=O)c(-c3ccc(O)cc3)nnc12	> 100 µM	> 100 µM	> 100 µM	> 100 µM	> 100 µM	> 100 µM	–	–	> 100 µM	> 100 µM	–	> 100 µM	–	–	–	–	–	–	–
Cc1cccc(Nc2cn(CCOc3ccccc3)c(=O)[nH]c2=O)c1	61.9 µM	39.8 µM	–	> 100 µM	–	72.3 µM	> 100 µM	> 100 µM	> 100 µM	> 100 µM	> 100 µM	–	–	–	–	–	–	–	–
COc1ccc(NS(=O)C2CCCCC2)cc1 (configuration not stated)	> 100 µM	> 100 µM	> 100 µM	> 100 µM	> 100 µM	–	> 100 µM	> 100 µM	> 100 µM	> 100 µM	–	> 100 µM	–	–	–	–	–	–	–
Cc1c(Cl)cccc1NC(=O)C(=O)C1C(=O)NC(=O)NC1=O	> 100 µM	> 100 µM	> 100 µM	> 100 µM	> 100 µM	–	> 100 µM	> 100 µM	> 100 µM	–	> 100 µM	> 100 µM	–	–	–	–	–	–	–
CCN(CC)P1(=S)Oc2ccc3ccccc3c2-c2c(ccc3ccccc23)O1	> 100 µM	> 100 µM	> 100 µM	> 100 µM	> 100 µM	> 100 µM	> 100 µM	–	> 100 µM	> 100 µM	> 100 µM	> 100 µM	–	–	–	–	–	–	–
COCOc1cc(OC)ccc1C=O	> 100 µM	> 100 µM	> 100 µM	> 100 µM	> 100 µM	88.8 µM	–	39.1 µM	> 100 µM	> 100 µM	> 100 µM	66.8 µM	–	–	–	–	–	–	–
CC1OC(OC2C(CO)OC(O[C@H]3CC[C@@]4(C)C(=CC[C@H]5[C@@H]6C[C@@H]7O[C@](O)(CC[C@@H](C)COC8OC(CO)C(O)C(O)C8O)[C@@H](C)[C@@H]7[C@@]6(C)CC[C@@H]54)C3)C(OC3OC(C)C(O)C(O)C3O)C2O)C(O)C(O)C1O (some centres not stated)	3.16 µM	57.1 µM	–	6.76 µM	4.09 µM	5.51 µM	10.2 µM	5.38 µM	14.5 µM	4.97 µM	5.68 µM	–	–	–	–	–	–	–	–
COC(=O)CSc1[nH]c2nc(C)nc(Nc3ccccc3)c2c1C#N	> 10 µM	> 10 µM	–	–	> 10 µM	> 10 µM	> 10 µM	> 10 µM	> 10 µM	> 10 µM	> 10 µM	> 10 µM	–	–	–	–	–	–	–
CCc1nnc2sc(-c3ccc(-c4ccc(Cl)cc4Cl)o3)nn12	> 100 µM	> 100 µM	> 100 µM	> 100 µM	> 100 µM	> 100 µM	> 100 µM	22.3 µM	> 100 µM	> 100 µM	–	> 100 µM	–	–	–	–	–	–	–
CCOC(=O)c1ccc(N=C/C=C(\Nc2ccc(C(=O)OCC)cc2)c2ccc3ccccc3c2)cc1	> 100 µM	–	96.9 µM	> 100 µM	> 100 µM	> 100 µM	52.1 µM	57.3 µM	92.3 µM	> 100 µM	30.5 µM	49 µM	–	–	–	–	–	–	–
COC(=O)CCCc1ccc2c(c1)CCC2	> 100 µM	–	> 100 µM	> 100 µM	> 100 µM	> 100 µM	> 100 µM	–	> 100 µM	> 100 µM	> 100 µM	–	–	–	–	–	–	–	–
CC(=O)OCC1OC(n2c(-c3ccccc3)c(N=Nc3ccc(Cl)cc3)c(C)c(C#N)c2=S)C(OC(C)=O)C(OC(C)=O)C1OC(C)=O (configuration not stated)	> 100 µM	–	–	30.6 µM and > 100 µM	–	37.4 µM and > 100 µM	> 100 µM	35.6 µM and 48.8 µM	> 100 µM	> 100 µM	15 µM and > 100 µM	49.1 µM and > 100 µM	6.86 µM and 22.1 µM	25.3 µM and > 100 µM	20.1 µM and 87.7 µM	15.7 µM and > 100 µM	6.64 µM and 37.9 µM	16.5 µM and > 100 µM	3.2 µM and 14.4 µM
N#CC(C(=O)c1ccccc1F)c1nc2cc(C(F)(F)F)ccc2s1 (configuration not stated)	–	81.6 µM	> 100 µM	89.6 µM	> 100 µM	–	85 µM	> 100 µM	> 100 µM	> 100 µM	–	53.2 µM	–	–	–	–	–	–	–
